Assay results from US9469682B2, “Methods of treatment using natriuretic polypeptides” (Mayo Foundation for Medical Education and Research, priority 2006, dated 2016).

Columns and labels:
normal dogs = test: Intravenous bolus of polypeptide in normal dogs (renal, haemodynamic and hormonal effects); assay type: in vivo, dog; conditions: 25 μg per kg IV bolus; for mean arterial blood pressure: FIG. 6; for plasma vasopressin levels: FIG. 7; for renal blood flow: FIG. 8; for vasodilatory effects: concluded from mean arterial blood pressure and renal blood flow
Protocol: Polypeptides with the sequences set forth in FIGS. 1-3 were designed and synthesized. The polypeptide set forth in FIG. 1 is referred to as an ABC-NP polypeptide; the polypeptide set forth in FIG. 2 is referred to as an ABC-NP1 polypeptide; and the polypeptide set forth in FIG. 3 is referred to as a BC-NP2 polypeptide. The biological effects of intravenous ABC-NP, ABC-NP1, or BC-NP2 infusion were tested in normal dogs. Briefly, five normal dogs were infused with 25 μg of ABC-NP, ABC-NP1, or BC-NP2 per kg administered as an IV bolus. Urinary sodium excretion, urine flow, mean arterial blood pressure, plasma vasopressin levels, and renal blood flow were measured as described elsewhere (Chen et al., Am. J. Physiol. Regul. Integr. Comp. Physiol., 288: R1093-R1097 (2005) and Haber et al., J. Clin. Endocrinol. Metab., 29:1349-1355 ([…])). The results were compared to results obtained from dogs treated with 25 μg of BNP per kg administered as an IV bolus.

[1] = tested on: human cardiac fibroblasts; test: cGMP generation in cardiac fibroblast cells (competitive RIA); assay type: cell-based; conditions: 10^−11 M, 10^−8 M, or 10^−6 M for 10 minutes, FIGS. 9-11
Protocol: The biological effects of ABC-NP, ABC-NP1, or BC-NP2 on cardiac fibroblast cells were tested in vitro. Briefly, 80-90% confluent cardiac fibroblast cells were incubated in Hank's balanced salt solution (InVitrogen) containing 20 mmol/L N-[2-hydroxyethyl]piperazine-N′[2-ethanesulfonic acid], 0.1% bovine serum albumin, and 0.5 mmol/L 3-isobutyl-1-methylzanthine (Sigma). Treated cells received ANP (10^−6M), BNP (10^−6M), CNP (10^−6M), ABC-NP (10^−11M, 10^−8M, or 10^−6M), ABC-NP1 (10^−11 M, 10^−8 M, or 10^−6 M), or BC-NP2 (10^−11M, 10^−8 M, or 10^−6 M) for 10 minutes. Cells were lysed in 6% TCA and sonicated for 10 minutes. The samples were ether extracted four times in four volumes of ether, dried, and reconstituted in 300 μL cGMP assay buffer. The samples were assayed using a competitive RIA cGMP kit (Perkin-Elmer, Boston, Mass.). Briefly, samples and standards were incubated with 100 μL anti-human cGMP polyclonal antibody and I^125-antigen for 18 hours. cGMP assay buffer was added to the samples, and they were centrifuged for 20 minutes at 2500 rpm. The free fraction was aspirated off; the bound fraction was counted; and concentrations determined Samples were corrected for dilution factors, and values were expressed as pmoles/mL. There is no cross-reactivity with ANP, BNP, or CNP, and there is <0.001% reactivity with cAMP, GMP, GDP, ATP, and GTP.

Substance | mean arterial blood pressure (normal dogs) | plasma vasopressin levels (normal dogs) | renal blood flow (normal dogs) | prolonged aquaretic and diuretic renal actions (normal dogs; FIGS. 4 and 5) | cGMP activation [1] | aquaretic and natriuretic effects (urinary sodium excretion, urine flow) (normal dogs; FIGS. 4 and 5) | vasodilatory effects (normal dogs) | renal effects as compared to ABC-NP (normal dogs; FIGS. 4 and 5)
ABC-NP1: 33-residue polypeptide: human mature ANP residues 11-15, human mature CNP residues 1-22, human mature BNP residues 27-32 (RMDRIGLSKGCFGLKLDRIGSMSGLGCKVLRRH; combination of SEQ ID NOs1, 7, and 3) | reduction | strong trend for increasing | increase | no prolonged aquaretic and diuretic renal actions observed | activated cGMP |  |  | 
ABC-NP: 33-residue polypeptide: human ANP residues 11-15, human CNP 1-22 with positions 15-17 changed to Arg-Glu-Ala, human BNP residues 27-32 (RMDRIGLSKGCFGLKLDRIREASGLGCKVLRRH; combination of SEQ ID NOs1, 2, and 3) | no effect | did not increase |  |  | did not | resulted in aquaretic and natriuretic effects | does not have vasodilatory effects | 
BC-NP2: 28-residue polypeptide: human CNP 1-22 with positions 15-17 changed to arginine, glutamic acid, alanine, then human BNP residues 27-32 (GLSKGCFGLKLDRIREASGLGCKVLRRH; combination of SEQ ID NOs2 and 3) | did not result in a decrease |  | did not result in a decrease in mean arterial blood pressure or an increase in renal blood flow |  | did not |  | does not have vasodilatory effects | about 50%
BNP: natriuretic peptide of myocardial cell origin; main form a 32 amino acid polypeptide with a ring structure; comparator [reference compound] |  | increased |  |  |  |  |  | 
